From paper PMC4418665, “Cyclization of the Urokinase Receptor-Derived Ser-Arg-Ser-Arg-Tyr Peptide Generates a Potent Inhibitor of Trans-Endothelial Migration of Monocytes” (PLoS ONE, 2015)
Peptide text beside a SMILES is read from it.

What was measured:
FPR1 = target: T1, FPR1 (Homo sapiens, UniProt P21462); assay: Ligand binding assay, competition with FITC-fMLF at 4°C, THP-1 cells; parameters: host or cells: THP-1 human monocytic leukemia cells; details: excess (100 nM) unlabeled peptide 60 min at 4°C, then 10 nM FITC-fMLF 60 min at 4°C; triplicates
T1 sequence (P21462 1-350): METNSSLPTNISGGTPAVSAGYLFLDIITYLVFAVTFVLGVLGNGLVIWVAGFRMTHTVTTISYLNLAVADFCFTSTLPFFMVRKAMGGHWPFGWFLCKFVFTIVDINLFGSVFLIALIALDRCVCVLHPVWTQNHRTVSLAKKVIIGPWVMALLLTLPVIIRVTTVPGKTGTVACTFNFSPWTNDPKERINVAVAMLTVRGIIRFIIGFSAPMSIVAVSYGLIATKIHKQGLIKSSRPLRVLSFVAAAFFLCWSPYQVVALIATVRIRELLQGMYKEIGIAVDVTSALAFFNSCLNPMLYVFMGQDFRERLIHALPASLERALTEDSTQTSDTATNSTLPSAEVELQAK
Method: Once documented that both SRSRY and [SRSRY] peptides compete with fMLF for binding to FPR1, we investigated the effect of [SRSRY] on the motility of monocytes. Preliminarily, we assessed whether [SRSRY] is a ligand of FPR1 on monocyte cell surface. […] (Fig 3A). When binding experiments were performed at 37°C, FPR1 appeared mainly localized within the cytoplasm, adjacent but outside the nucleus of THP-1 cells.
Fig 3 The peptide [SRSRY] binds to FPR1 on THP-1 cell surface. A. THP-1 cells (1.5 x10^6 cells/sample) were pre-incubated with diluents (None), 100 nM fMLF, 100 nM SRSRY or 100 nM [SRSRY] peptides for 60 minutes at 4°C, then exposed to 10 nM N-formyl-Nle-Leu-Phe-Nle-Tyr-Lys-fluorescein (FITC-fMLF) for additional 60 minutes at 4°C. Fluorimetric measurement of cell-associated fluorescence was assed using 485 nm excitation and 535 nm emission filters. Data are expressed as a percentage of the fluorescence associated to THP-1 cells exposed to FITC-fMLF alone (None = 100%) and represent a mean ± SD from triplicates. *Statistical significance (t-test) against None with p<0.001. B. THP-1 cells incubated with diluents (None), 100 nM fMLF, 100 nM SRSRY or 100 nM [SRSRY] peptides for 30 minutes at 37°C and exposed to 10 nM FITC-fMLF for additional 30 minutes at 37°C. Scale bar: 5 μm. Original magnifications: 630x. […]

human primary monocytes = assay: Primary monocyte migration in Boyden chambers; type: cell-based; details: 10 nM peptide, 90 minutes

Structure (SMILES): N=C(N)NCCC[C@H](NC(=O)[C@H](CO)NC(=O)[C@H](CCCNC(=N)N)NC(=O)[C@@H](N)CO)C(=O)N[C@@H](Cc1ccc(O)cc1)C(N)=O [SRSRY, H-Ser-Arg-Ser-Arg-Tyr-NH2] (H-SRSRY-NH2)
- binding of FITC-fMLF to THP-1 cells (FPR1): dramatically reduced

Structure (SMILES): N=C(N)NCCC[C@@H]1NC(=O)[C@H](CO)NC(=O)[C@H](Cc2ccc(O)cc2)NC(=O)[C@H](CCCNC(=N)N)NC(=O)[C@H](CO)NC1=O [[SRSRY], [Ser-Arg-Ser-Arg-Tyr]] (cyclo(RSRYS))
- reduction of SRSRY-directed primary monocyte migration (human primary monocytes; 10 nM SRSRY): 49%
- reduction of fMLF-directed primary monocyte migration (human primary monocytes; 10 nM fMLF): 50%
- binding of FITC-fMLF to THP-1 cells (FPR1): dramatically reduced
